Reference: patent US11466044B2 (WAYNE STATE UNIVERSITY, priority 2017, dated 2022)
Values after ≈ are worked out from the molar mass of the structure shown. Like-named read-outs stand apart in the source and are kept apart here.

Assays:
E coli wild type = test: MIC by broth microdilution, wild type E coli; format: cell-based; settings: for MIC: Escherichia coli
[1] = tested on: E coli carrying specific resistance determinants; test: MIC by broth microdilution, E coli carrying specific resistance determinants; format: cell-based; settings: for MIC: Escherichia coli; for MIC APH(3)-VI / MIC APH(3′)-I / MIC APH(3′)-II / MIC APH(3′)-III: Table 3 (Example 1)
[2] = tested on: wild type bacterial ribosomes; test: in-vitro translation assay, bacterial ribosomes; format: biochemical; settings: bacterial ribosome; Table 3 (Example 1); read-out: IC50 Bac
Description: (§1) The antiribosomal activity of these compounds was investigated with cell-free translation assays using both wild type bacterial ribosomes and hybrid ribosomes carrying eukaryotic decoding A sites enabling the prediction of selectivity.

[3] = tested on: cytosolic ribosome (human chimeric); format: biochemical; settings: cytosolic, read-out: IC50 Cyt
Description: as §1

[4] = tested on: mitochondrial ribosome (human chimeric); format: biochemical; settings: mitochondrial, read-out: IC50 Mit
Description: as §1

[5] = ATCC25922, strain AG212 E. coli (ATCC25922), read-out: MIC AG212 E. coli
[6] = clinical isolate AG160 WT, Table 2 (Example 4), read-out: MIC AG160 E. coli WT
[7] = engineered strain pH430 WT, Table 2 (Example 4), read-out: MIC pH430 E. coli WT
[8] = read-out: MIC AG037 E. coli APH(3′)-III
[9] = read-out: MIC WT, WT, Table 3 (Example 2)

Compound: NC[C@@H]1O[C@H](O[C@@H]2C(O)[C@H](O[C@@H]3C(O)[C@H](N)CC(N)[C@H]3O[C@H]3OC4C(O)CCO[C@H]4[C@H](O)C3N)O[C@@H]2CO)C(N)C(O)[C@@H]1O (stereo partly shown) [Compound 211]
- MIC (E coli wild type; [5]): 32 to 64 µg/mL (≈ 49.9 to 99.7 µM)

Compound: NCC1OC(OC2C(N)CC(N)C(O)C2OC2OC(CNC=O)C(O)C2O)C(N)C(O)C1O (stereo not shown) [Compound 130]
- MIC (E coli wild type; WT, Table 3 (Example 1), read-out: MIC WT): 4 µg/mL (≈ 8.31 µM)
- MIC (E coli wild type; [6]): 16 µg/mL (≈ 33.2 µM)
- MIC (E coli wild type; [7]): 4 µg/mL (≈ 8.31 µM)
- MIC [1, 8]: > 128 µg/mL
- MIC ([1]; read-out: MIC AG163 E. coli APH(3′)-I): > 128 µg/mL
- MIC ([1]; read-out: MIC AG166 E. coli APH(3′)-II): > 128 µg/mL
- MIC ([1]; read-out: MIC APH(3)-VI): > 64 µg/mL
- MIC ([1]; read-out: MIC APH(3′)-I): > 64 µg/mL
- MIC ([1]; read-out: MIC APH(3′)-II): > 64 µg/mL
- MIC ([1]; read-out: MIC APH(3′)-III): > 64 µg/mL
- MIC ([1]; read-out: MIC pH421 E. coli APH(3′)-I): > 64 µg/mL
- MIC ([1]; read-out: MIC pH422 E. coli APH(3′)-II): > 64 µg/mL
- MIC ([1]; read-out: MIC pH423 E. coli APH(3′)-VI): > 64 µg/mL
- IC50 [2]: 0.24 µM
- IC50 ([3]; Table 3 (Example 1)): 359 µM
- IC50 ([4]; Table 3 (Example 1)): 364 µM

Compound: NC[C@H]1O[C@H](O[C@H]2[C@H](O[C@@H]3O[C@H](CN)[C@@H](O)[C@H]3O)[C@@H](O)[C@H](N)C[C@@H]2N)[C@H](N)[C@@H](O)[C@@H]1O [Compound 048]
- MIC WT (E coli wild type; WT, Table 3 (Example 1)): 2 to 4 µg/mL
- MIC APH(3)-VI [1]: 64 µg/mL (≈ 141 µM)
- MIC APH(3′)-I [1]: >64 µg/mL
- MIC APH(3′)-II [1]: >64 µg/mL
- MIC APH(3′)-III [1]: >64 µg/mL
- IC50 [2]: 0.09 µM
- IC50 ([4]; Table 3 (Example 1)): 76 µM

Compound: CC[C@@H]1C(CO)O[C@H](O[C@@H]2C(N)C[C@@H](N)C(O)[C@H]2O[C@@H]2O[C@H](CO)[C@H](O[C@H]3OC(CN)[C@@H](O)C(O)C3N)C2O)[C@@H](N)C1O (stereo partly shown) [Compound 206]
- MIC (E coli wild type; [5]): 8 µg/mL (≈ 12.7 µM)

Compound: NCC1O[C@H](O[C@@H]2C(O)[C@H](O[C@@H]3C(O)[C@H](N)CC(N)[C@H]3O[C@H]3OC4C(O)CO[C@H]4[C@H](O)C3N)O[C@@H]2CO)C(N)[C@H](O)[C@@H]1O (stereo partly shown) [DC-204]
- MIC (E coli wild type; [9]): 8 µg/mL (≈ 12.7 µM)
- MIC ([1]; read-out: MIC AAC(6′)): 16 µg/mL (≈ 25.5 µM)
- MIC ([1]; read-out: MIC ANT(4′)): 4 to 8 µg/mL (≈ 6.37 to 12.7 µM)
- MIC ([1]; read-out: MIC APH(3′)-II): 16 to 32 µg/mL (≈ 25.5 to 51 µM)
- MIC ([1]; read-out: MIC APH(3′)-VI): 16 µg/mL (≈ 25.5 µM)
- IC50 ([3]; Table 3 (Example 2)): 131 µM
- IC50 ([4]; Table 3 (Example 2)): 0.2 µM

Compound: CC(=O)NC[C@H]1O[C@@H](O[C@@H]2C(O)[C@H](N)CC(N)[C@H]2O[C@H]2OC(CN)[C@@H](O)[C@H](O)C2N)C(O)[C@H]1O (stereo partly shown) [Compound 129]
- MIC (E coli wild type; [6]): 64 µg/mL (≈ 129 µM)
- MIC (E coli wild type; [7]): 32 µg/mL (≈ 64.6 µM)
- MIC [1, 8]: > 64 µg/mL

Compound: NC[C@@H]1O[C@H](O[C@H]2[C@@H](O)[C@H](O[C@@H]3[C@@H](O)[C@H](N)C[C@H](N)[C@H]3O[C@H]3O[C@H](CN)[C@@H](O)C[C@H]3N)O[C@@H]2CO)[C@H](N)[C@@H](O)[C@@H]1O [Compound 140]
- MIC WT (E coli wild type; WT, Table 3 (Example 1)): 1 µg/mL (≈ 1.67 µM)
- MIC AG160 E. coli WT (E coli wild type; clinical isolate AG160 WT, Table 2 (Example 4)): 1 µg/mL (≈ 1.67 µM)
- MIC pH430 E. coli WT (E coli wild type; engineered strain pH430 WT, Table 2 (Example 4)): 1 μg/ml
- MIC APH(3)-VI [1]: 1 µg/mL (≈ 1.67 µM)
- MIC APH(3′)-I [1]: >32 µg/mL
- MIC APH(3′)-II [1]: 1 µg/mL (≈ 1.67 µM)
- MIC APH(3′)-III [1]: 32 µg/mL (≈ 53.5 µM)
- MIC AG163 E. coli APH(3′)-I ([1]; clinical isolate AG163 APH(3′)-I, Table 2 (Example 4)): 64 µg/mL (≈ 107 µM)
- MIC AG166 E. coli APH(3′)-II ([1]; clinical isolate AG166 APH(3′)-II, Table 2 (Example 4)): 1 µg/mL (≈ 1.67 µM)
- MIC AG037 E. coli APH(3′)-III ([1]; engineered strain AG037 APH(3′)-III, Table 2 (Example 4)): 32 µg/mL (≈ 53.5 µM)
- MIC pH421 E. coli APH(3′)-I ([1]; engineered strain pH421 APH(3′)-I, Table 2 (Example 4)): >32 μg/ml
- MIC pH422 E. coli APH(3′)-II ([1]; engineered strain pH422 APH(3′)-II, Table 2 (Example 4)): 1 μg/ml
- MIC pH423 E. coli APH(3′)-VI ([1]; engineered strain pH423 APH(3′)-VI, Table 2 (Example 4)): 1 μg/ml
- IC50 [2]: 0.04 µM
- IC50 ([3]; Table 3 (Example 1)): 66 µM
- IC50 ([4]; Table 3 (Example 1)): 4.6 µM

Compound: NC[C@H]1O[C@H](O[C@H]2[C@H](O[C@@H]3O[C@H](CO)[C@@H](O)[C@H]3O)[C@@H](O)[C@H](N)C[C@@H]2N)[C@H](N)C[C@@H]1O [Compound 047]
- MIC WT (E coli wild type; WT, Table 3 (Example 1)): 2 to 4 µg/mL
- MIC APH(3)-VI [1]: 4 µg/mL (≈ 9.12 µM)
- MIC APH(3′)-I [1]: >64 µg/mL
- MIC APH(3′)-II [1]: 2 to 4 µg/mL
- MIC APH(3′)-III [1]: >64 µg/mL
- IC50 [2]: 0.1 µM
- IC50 ([3]; Table 3 (Example 1)): 293 µM
- IC50 ([4]; Table 3 (Example 1)): 325 µM

Compound: NCC1O[C@H](O[C@@H]2C(O)[C@H](O[C@@H]3C(O)[C@H](N)CC(N)[C@H]3O[C@H]3OC4C(O)CO[C@H]4[C@H](O)C3N)O[C@@H]2CO)C(N)[C@H](O)[C@@H]1O (stereo partly shown) [Compound 203]
- MIC (E coli wild type; [5]): 32 µg/mL (≈ 51 µM)

Compound: NC[C@@H]1O[C@H](O[C@@H]2C(O)[C@H](O[C@@H]3C(O)[C@H](N)CC(N)[C@H]3O[C@H]3OC4C(O)CCCO[C@H]4[C@H](O)C3N)O[C@@H]2CO)C(N)C(O)[C@@H]1O (stereo partly shown) [DC-196]
- MIC (E coli wild type; [9]): 4 µg/mL (≈ 6.1 µM)
- MIC ([1]; read-out: MIC AAC(6′)): 4 µg/mL (≈ 6.1 µM)
- MIC ([1]; read-out: MIC ANT(4′)): 2 µg/mL (≈ 3.05 µM)
- MIC ([1]; read-out: MIC APH(3′)-II): 16 µg/mL (≈ 24.4 µM)
- MIC ([1]; read-out: MIC APH(3′)-VI): 16 µg/mL (≈ 24.4 µM)
- IC50 ([3]; Table 3 (Example 2)): 200 µM
- IC50 ([4]; Table 3 (Example 2)): 0.14 µM
